How the values were obtained:
[1] = tested on: patient suffering from chronic insomnia; assay: Treatment of a patient with chronic insomnia; assay type: in vivo, human
Source text: A patient suffers from chronic insomnia. The patient is otherwise healthy with normal affect with no depression, anxiety or substance overuse. The patient is prescribed desmethyldoxepin in a daily dosage of 2 milligrams prior to bedtime.
A patient suffers from chronic insomnia. The patient also suffers from depression. The patient is prescribed desmethyldoxepin in a daily dosage of 1 milligram prior to bedtime.
A patient suffers from chronic insomnia. The patient also suffers from depression. The patient is prescribed desmethyldoxepin in a daily dosage of 2 milligrams prior to bedtime.
A patient suffers from chronic insomnia. The patient is otherwise healthy with normal affect with no depression, anxiety or substance overuse. The patient is prescribed desmethyldoxepin in a daily dosage of 5 milligrams prior to bedtime.
A patient suffers from chronic insomnia. The patient also suffers from depression. The patient is prescribed desmethyldoxepin in a daily dosage of 5 milligrams prior to bedtime.
A patient suffers from chronic insomnia. The patient is otherwise healthy with normal affect with no depression, anxiety or substance overuse. The patient is prescribed desmethyldoxepin in a daily dosage of 10 milligrams prior to bedtime.
A patient suffers from chronic insomnia. The patient also suffers from depression. The patient is prescribed desmethyldoxepin in a daily dosage of 10 milligrams prior to bedtime.
A patient suffers from chronic insomnia. The patient is otherwise healthy with normal affect with no depression, anxiety or substance overuse. The patient is prescribed desmethyldoxepin in a daily dosage of 20 milligrams prior to bedtime.
A patient suffers from chronic insomnia. The patient also suffers from depression. The patient is prescribed desmethyldoxepin in a daily dosage of 20 milligrams prior to bedtime.
A patient suffers from chronic insomnia. The patient is otherwise healthy with normal affect with no depression, anxiety or substance overuse. The patient is prescribed desmethyldoxepin in a daily dosage of 150 milligrams prior to bedtime.
A patient suffers from chronic insomnia. The patient also suffers from depression. The patient is prescribed desmethyldoxepin in a daily dosage of 150 milligrams prior to bedtime.

[2] = tested on: patient suffering from transient or short term insomnia; assay: Treatment of a patient with transient or short term insomnia; assay type: in vivo, human
Source text: A patient suffers from transient or short term insomnia. The patient is otherwise healthy with normal affect with no depression, anxiety or substance overuse. The patient is prescribed desmethyldoxepin in a daily dosage of 1 milligram, prior to bedtime.
A patient suffers from transient or short term insomnia. The patient is otherwise healthy with normal affect with no depression, anxiety or substance overuse. The patient is prescribed desmethyldoxepin in a daily dosage of 2 milligrams, prior to bedtime.
A patient suffers from transient or short term insomnia. The patient also suffers from depression. The patient is prescribed desmethyldoxepin in a daily dosage of 2 milligrams, prior to bedtime.
A patient suffers from transient or short term insomnia. The patient is otherwise healthy with normal affect with no depression, anxiety or substance overuse. The patient is prescribed desmethyldoxepin in a daily dosage of 5 milligrams, prior to bedtime.
A patient suffers from transient or short term insomnia. The patient also suffers from depression. The patient is prescribed desmethyldoxepin in a daily dosage of 5 milligrams, prior to bedtime.
A patient suffers from transient or short term insomnia. The patient is otherwise healthy with normal affect with no depression, anxiety or substance overuse. The patient is prescribed desmethyldoxepin in a daily dosage of 10 milligrams, prior to bedtime.
A patient suffers from transient or short term insomnia. The patient also suffers from depression. The patient is prescribed desmethyldoxepin in a daily dosage of 10 milligrams, prior to bedtime.
A patient suffers from transient or short term insomnia. The patient is otherwise healthy with normal affect with no depression, anxiety or substance overuse. The patient is prescribed desmethyldoxepin in a daily dosage of 20 milligrams prior to bedtime.
A patient suffers from transient or short term insomnia. The patient also suffers from depression. The patient is prescribed desmethyldoxepin in a daily dosage of […] prior to bedtime.
A patient suffers from transient or short term insomnia. The patient is otherwise healthy with normal affect with no depression, anxiety or substance overuse. The patient is prescribed desmethyldoxepin in a daily dosage of 150 milligrams prior to bedtime.
A patient suffers from transient or short term insomnia. The patient also suffers from depression. The patient is prescribed desmethyldoxepin in a daily dosage of 150 milligrams prior to bedtime.

[3] = daily dosage of 2 milligrams prior to bedtime, patient also suffers from depression
[4] = daily dosage of 2 milligrams prior to bedtime, patient otherwise healthy, no depression, anxiety or substance overuse
[5] = daily dosage of 5 milligrams prior to bedtime, patient also suffers from depression
[6] = daily dosage of 5 milligrams prior to bedtime, patient otherwise healthy, no depression, anxiety or substance overuse
[7] = daily dosage of 10 milligrams prior to bedtime, patient also suffers from depression
[8] = daily dosage of 10 milligrams prior to bedtime, patient otherwise healthy, no depression, anxiety or substance overuse
[9] = daily dosage of 20 milligrams prior to bedtime, patient otherwise healthy, no depression, anxiety or substance overuse
[10] = daily dosage of 150 milligrams prior to bedtime, patient also suffers from depression
[11] = daily dosage of 150 milligrams prior to bedtime, patient otherwise healthy, no depression, anxiety or substance overuse

Measured: relief of insomnia

CNCC/C=C1/c2ccccc2COc2ccccc21 [desmethyldoxepin, Desmethyldoxepin]
relieves the insomnia: [1]; daily dosage of 1 milligram prior to bedtime, patient also suffers from depression | [1]; [3] | [1]; [4] | [1]; [5] | [1]; [6] | [1]; [7] | [1]; [8] | [1]; daily dosage of 20 milligrams prior to bedtime, patient also suffers from depression | [1]; [9] | [1]; [10] | [1]; [11] | [2]; daily dosage of 1 milligram prior to bedtime, patient otherwise healthy, no depression, anxiety or substance overuse | [2]; [3] | [2]; [4] | [2]; [5] | [2]; [6] | [2]; [7] | [2]; [8] | [2]; [9] | [2]; daily dosage of 20 prior to bedtime, patient also suffers from depression | [2]; [10] | [2]; [11]

Source: patent publication US20130296413A1, “N-DESMETHYL-DOXEPIN AND METHODS OF USING THE SAME TO TREAT SLEEP DISORDERS” (Procom One, Inc., priority 2006, published 2013)
